Results: patent publication US20240254089A1, “MODULATORS OF MAS-RELATED G-PROTEIN RECEPTOR X4 AND RELATED PRODUCTS AND METHODS” (ESCIENT PHARMACEUTICALS, INC., priority 2020, published 2024)

Target: T1, human MRGPR X4 (Homo sapiens, UniProt Q96LA9)
T1 construct: expressed in transfected cells
Test: MRGPR X4 antagonist activity, IP-One Gq HTRF assay in stably transfected HEK cells
Format: cell-based
Procedure, shortened: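 IC50 comes from HTRF IP-1 accumulation in stably transfected HEK cells expressing human MRGPR X4. Compounds (10 uM top, 1:3 serial, 10 points) were co-incubated with 10 μM bilirubin, 20 μM deoxycholic acid or 100 μM conjugated bilirubin in LiCl-containing buffer, pH 8, for 1 h at 37 °C plus 30 min at room temperature.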

T1 sequence (Q96LA9 whole entry): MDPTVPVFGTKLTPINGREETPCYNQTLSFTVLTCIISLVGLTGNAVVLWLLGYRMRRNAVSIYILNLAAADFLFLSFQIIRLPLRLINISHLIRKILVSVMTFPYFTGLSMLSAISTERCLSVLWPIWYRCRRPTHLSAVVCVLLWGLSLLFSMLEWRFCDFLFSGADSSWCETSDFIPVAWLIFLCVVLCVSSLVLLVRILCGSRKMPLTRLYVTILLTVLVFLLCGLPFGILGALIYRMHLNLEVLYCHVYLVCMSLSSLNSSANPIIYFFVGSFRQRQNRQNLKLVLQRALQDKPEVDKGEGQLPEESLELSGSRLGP

Row | Compound | IC50
1 | O=C(NCCc1nnc2ccccn12)c1nn(Cc2cccn3ccnc23)c2ccccc12 [Compound 518] | 1000 to 2500 nM
2 | COc1ccc2nc(Cn3nc(C(=O)NCCc4nnc5ccccn45)c4ccccc43)[nH]c2c1 [Compound 519] | 501 to 1000 nM
3 | Cc1occc1Cn1nc(C(=O)NCCc2nnc3ccccn23)c2ccccc21 [Compound 520] | > 2500 nM
4 | O=C(NCCc1nnc2ccccn12)c1nn(Cc2nc3ccccc3[nH]2)c2ccccc12 [Compound 521] | 1000 to 2500 nM
5 | O=C(NCCc1nnc2ccccn12)c1nn(Cc2nc3ccc(C(F)(F)F)cc3[nH]2)c2ccccc12 [Compound 522] | 501 to 1000 nM
6 | Cc1cccc(CCn2nc(C(=O)NCCc3nnc4ccccn34)c3ccccc32)c1 [Compound 523] | 1000 to 2500 nM
7 | O=C(NCCc1nnc2ccccn12)c1nn(Cc2ccc(Cl)c(F)c2)c2ccccc12 [Compound 524] | < 100 nM
8 | O=C(NCCc1nnc2ccccn12)c1nn(Cc2ccc(Cl)cc2Cl)c2ccccc12 [Compound 525] | < 100 nM
9 | O=C(NCCc1nnc2ccccn12)c1nn(Cc2ccc(Cl)c(Cl)c2)c2ccccc12 [Compound 526] | < 100 nM
10 | O=C(NCCc1nnc2ccccn12)c1nn(Cc2ccc(Cl)cc2F)c2ccccc12 [Compound 527] | < 100 nM
11 | Cc1ccc(Cn2nc(C(=O)NCCc3nnc4ccccn34)c3ccccc32)cc1 [Compound 528] | < 100 nM
12 | O=C(NCCc1nnc2ccccn12)c1nn(Cc2ccc(Cl)cc2)c2ccc(Br)cc12 [Compound 529] | < 100 nM
13 | Cc1ccc2c(c1)c(C(=O)NCCc1nnc3ccccn13)nn2Cc1ccc(Cl)cc1 [Compound 530, N-(2-([1,2,4]triazolo[4,3-a]pyridin-3-yl)ethyl)-1-(4-chlorobenzyl)-5-methyl-1H-indazole-3-carboxamide] | < 100 nM
14 | O=C(NCCc1nnc2ccccn12)c1nn(Cc2ccc(C(F)(F)F)cc2)c2ccc(F)cc12 [Compound 531] | < 100 nM
15 | O=C(NCCc1nnc2ccccn12)c1nn(Cc2ccc3ccccc3c2)c2ccc(F)cc12 [Compound 532, N-(2-([1,2,4]triazolo[4,3-a]pyridin-3-yl)ethyl)-5-fluoro-1-(naphthalen-2-ylmethyl)-1H-indazole-3-carboxamide] | < 100 nM
16 | O=C(NCCn1nnc2ccccc21)c1nn(Cc2ccc(Cl)cc2)c2ccc(F)cc12 [Compound 533] | < 100 nM
17 | Cc1[nH]c2ccc(O)cc2c1CCNC(=O)c1nn(Cc2ccc(Cl)cc2)c2ccc(F)cc12 [Compound 534] | < 100 nM
18 | O=C(NCCc1nnc2ccccn12)c1nn(Cc2cc3c(cc2Cl)OCO3)c2ccc(F)cc12 [Compound 536] | < 100 nM
19 | O=C(NCCc1nnc2ccccn12)c1nn(Cc2ccc3c(c2)CCC3)c2ccc(F)cc12 [Compound 537] | < 100 nM

Row | Compound | IC50
20 | O=C(NCCc1nnc2ccccn12)c1nn(Cc2ccc3sccc3c2)c2ccc(F)cc12 [Compound 538] | < 100 nM
21 | O=C(NCCc1nnc2ccccn12)c1nn(Cc2ccc(Cl)cc2)c2c(Cl)cccc12 [Compound 539] | < 100 nM
22 | O=C(NCCc1nnc2ccccn12)c1nn(Cc2ccc(Cl)cc2)c2c(F)cccc12 [Compound 540] | < 100 nM
23 | O=C(NCCc1nnc2ccccn12)c1nn(Cc2ccc(Cl)cc2)c2c(Br)cccc12 [Compound 541] | < 100 nM
24 | N#Cc1ccc2c(C(=O)NCCc3nnc4ccccn34)nn(Cc3ccc(Cl)cc3)c2c1 [Compound 542] | < 100 nM
25 | COc1ccc2c(c1)c(C(=O)NCCc1nnc3ccccn13)nn2Cc1ccc(Cl)cc1 [Compound 543] | 100 to 500 nM
26 | Cn1c(Cn2nc(C(=O)NCCc3nnc4ccccn34)c3ccccc32)nc2ccccc21 [Compound 544] | 100 to 500 nM
27 | O=C(NCCc1nnc2ccccn12)c1nn(Cc2cccc3c2CCC3)c2ccccc12 [Compound 545] | 100 to 500 nM
28 | N#Cc1cccc2c1c(C(=O)NCCc1nnc3ccccn13)nn2Cc1ccc(Cl)cc1 [Compound 546] | 100 to 500 nM
29 | O=C(NCCc1nnc2ccccn12)c1nn(Cc2ccc(Cl)cc2)c2cccc(Cl)c12 [Compound 547] | 501 to 1000 nM
30 | O=C(NCCc1nnc2ccccn12)c1nn(Cc2cccc3ccsc23)c2ccccc12 [Compound 548] | 501 to 1000 nM
31 | Cc1ccc2c(C(=O)NCCc3nnc4ccccn34)nn(Cc3ccc(Cl)cc3)c2c1 [Compound 549] | 100 to 500 nM
32 | O=C(NCCc1nnc2ccccn12)c1nn(Cc2ccc(Cl)cc2)c2cc(Br)ccc12 [Compound 550] | 100 to 500 nM
33 | N#Cc1ccc2c(c1)c(C(=O)NCCc1nnc3ccccn13)nn2Cc1ccc(Cl)cc1 [Compound 551] | < 100 nM
34 | O=C(NCCc1nnc2ccccn12)c1nn(Cc2ccc(Cl)cc2)c2ccc(I)cc12 [Compound 552] | < 100 nM
35 | O=C(NCCc1nnc2ccccn12)c1nn(Cc2ccc(C(F)(F)F)cc2Cl)c2ccccc12 [Compound 553] | < 100 nM
36 | Cc1cc(Cl)ccc1Cn1nc(C(=O)NCCc2nnc3ccccn23)c2ccccc21 [Compound 554] | < 100 nM
37 | Cc1cc(Cn2nc(C(=O)NCCc3nnc4ccccn34)c3ccccc32)ccc1Cl [Compound 555] | < 100 nM
38 | O=C(NCCc1nnc2ccccn12)c1nn(Cc2ccc3cc[nH]c3c2)c2ccccc12 [Compound 556] | < 100 nM

Row | Compound | IC50
39 | Cc1cc(C)c2oc(Cn3nc(C(=O)NCCc4nnc5ccccn45)c4ccccc43)cc2c1 [Compound 557] | 100 to 500 nM
40 | O=C(NCCc1nnc2ccccn12)c1nn(Cc2cc3ccccc3s2)c2ccccc12 [Compound 558] | < 100 nM
41 | O=C(NCCc1nnc2ccccn12)c1nn(Cc2ccc3c(c2)CCCC3)c2ccccc12 [Compound 559] | < 100 nM
42 | Cc1ccc2nc(CCNC(=O)c3nn(Cc4ccc(Cl)cc4)c4ccccc34)[nH]c2c1 [Compound 560] | 100 to 500 nM
43 | Cc1cccc2[nH]c(CCNC(=O)c3nn(Cc4ccc(Cl)cc4)c4ccccc34)nc12 [Compound 561] | < 100 nM
44 | O=C(NCCc1nnc2ccccn12)c1nn(Cc2ccc(Cl)cc2)c2cc(Cl)ccc12 [Compound 562] | < 100 nM
45 | COc1ccc2c(C(=O)NCCc3nnc4ccccn34)nn(Cc3ccc(Cl)cc3)c2c1 [Compound 563] | < 100 nM
46 | O=C(NCCc1nnc2ccccn12)c1nn(Cc2ccc(Cl)cc2)c2cc(C(F)(F)F)ccc12 [Compound 564] | < 100 nM
47 | Cc1cccc2c1c(C(=O)NCCc1nnc3ccccn13)nn2Cc1ccc(Cl)cc1 [Compound 565] | < 100 nM
48 | O=C(NCCc1nnc2ccccn12)c1nn(Cc2ccc(Cl)cc2)c2cccc(Br)c12 [Compound 566] | 100 to 500 nM
49 | COc1ccc2nc(Cn3nc(C(=O)NCCc4nnc5ccccn45)c4ccccc43)n(C)c2c1 [Compound 567] | 1000 to 2500 nM
50 | Cc1ccc2nc(Cn3nc(C(=O)NCCc4nnc5ccccn45)c4ccccc43)n(C)c2c1 [Compound 568] | 501 to 1000 nM
51 | Cc1cccc2nc(Cn3nc(C(=O)NCCc4nnc5ccccn45)c4ccccc43)n(C)c12 [Compound 569] | 100 to 500 nM
52 | Cc1ccc2c(c1)nc(Cn1nc(C(=O)NCCc3nnc4ccccn34)c3ccccc31)n2C [Compound 570] | > 2500 nM
53 | O=C(NCCc1nnc2ccccn12)c1nn(Cc2ccc(Cl)c(Cl)c2)c2ccc(F)cc12 [Compound 571] | < 100 nM
54 | O=C(NCCc1nnc2ccccn12)c1nn(Cc2ccc(Cl)cc2F)c2ccc(F)cc12 [Compound 572] | < 100 nM
55 | Cc1c(Cn2nc(C(=O)NCCc3nnc4ccccn34)c3ccccc32)oc2ccccc12 [Compound 573] | < 100 nM
56 | Cn1c(Cn2nc(C(=O)NCCc3nnc4ccccn34)c3ccccc32)nc2cc(F)ccc21 [Compound 574] | 100 to 500 nM
